Measured values reported in patent publication US20240109843A1, “BENZALDEHYDE COMPOUNDS WITH DIRECT POLYMER DESTABILIZING EFFECTS TO TREAT SICKLE CELL DISEASE” (VIRGINIA COMMONWEALTH UNIVERSITY, priority 2018, published 2024).
Where “and” joins values, the source holds several entries; their conditions need not be identical. Equal entries are not always repeated.

What was measured:
sickle Hb = target: T1, sickle Hb (Homo sapiens, UniProt P69905); assay: Oxygen equilibrium (P50 shift) of lysates from treated sickle blood; format: cell-based; conditions: 0.5, 1 and 2 mM, SS blood
T1 construct: Blood suspensions from subjects with homozygous SCD; from tissue; host or cells: blood suspensions (20% hematocrit) from donors with homozygous SCD; lysates of the treated red cells
T1 sequence (P69905 2-142 limits assumed): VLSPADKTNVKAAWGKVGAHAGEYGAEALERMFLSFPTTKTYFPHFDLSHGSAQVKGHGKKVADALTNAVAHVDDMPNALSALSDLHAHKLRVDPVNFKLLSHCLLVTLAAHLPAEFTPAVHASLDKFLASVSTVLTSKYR
Method: Blood suspensions from subjects with homozygous SCD (resuspended in Hemox™ buffer to a final hematocrit 20%) were incubated under air in the absence or presence of the compounds (0.5 mM, 1 mM and 2 mM) at 37° C. for 1 h to ensure that binding had attained equilibrium. The suspensions were then incubated under hypoxic conditions (2.5% oxygen/97.5% nitrogen) at 37° C. for 1 h. Aliquot samples were fixed with 2% glutaraldehyde solution without exposure to air, and then subjected to microscopic morphological analysis of bright field images (at 40× magnification) of single layer cells on an Olympus BX40 microscope fitted with an Infinity Lite B camera (Olympus), and the coupled Image Capture software. The residual samples were washed in phosphate-buffer saline, and hemolyzed in hypotonic lysis buffer for subsequent Hb-modification and oxygen equilibrium analyses.
For oxygen equilibrium studies, approximately 100 μL aliquot samples from the above clarified lysate were added to 4 mL of 0.1M potassium phosphate buffer, pH 7.0, in cuvettes and subjected to hemoximetry analysis using a Hemox™ Analyzer (TCS Scientific Corp.) to assess P50 shifts. Degree of P50 shift (ΔP50) was expressed as percentage fractions of control DMSO-treated samples.

Hb [1] = target: T2, Hb (Homo sapiens, UniProt P69905); assay: Drug partitioning studies, fixed and unfixed Hb adducts in non-sickling AA blood; format: cell-based; design: Hemoglobin modification, studies using non-sickling AA blood; from tissue; host or cells: non-sickling (AA) human blood, red blood cells; conditions: 2 mM
T2 sequence (P69905 2-142 limits assumed): as above
T2 sequence (P68871 2-147 partner limits assumed): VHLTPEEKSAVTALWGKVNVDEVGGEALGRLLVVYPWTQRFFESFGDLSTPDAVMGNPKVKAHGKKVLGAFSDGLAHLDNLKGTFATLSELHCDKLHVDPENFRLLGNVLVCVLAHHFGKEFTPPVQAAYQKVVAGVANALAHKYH
Outline: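 Non-sickling blood was incubated with test molecules and lysed either in water (unfixed) or in 50 mM sodium borohydride (fixed). Hb adducts were quantified by cation-exchange HPLC as a fraction of total Hb. The partitioning ratio is fixed over unfixed modification and reflects intracellular Hb binding after RBC membrane permeation.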

[2] = test system: RBCs from donors with homozygous SCD; assay: Sickle inhibition in SS blood suspensions under hypoxia (2.5% oxygen); format: cell-based; conditions: Homo sapiens, 2 mM, 4 biological replicates, read-out: % Sickling Inhibition (Hypoxia)
Method: All compounds (Comp 1-13) and comparator molecules (VZHE-039, PP-14, INN-310, and Voxelotor) were evaluated following established procedures. Blood samples from individual donors with homozygous SCD (obtained with informed consent) were diluted using Hemox buffer solution with the addition of glucose (10 mM) and BSA (0.2%) to adjust hematocrit of the blood suspensions to 20%, which standardizes the procedure to normalize the ratio of RBCs to drug, for assay consistency and reproducibility. Briefly, blood suspensions were incubated under room air in the presence of various concentrations of test compounds (0-2 mM) at 37° C. for 1 hour in 96-well round bottom plates. Subsequently, the suspensions were incubated with a hypoxic gas mixture (2.5% Oxygen gas/balance Nitrogen gas) at 37° C. for up to 2 hours prior to fixation with 2% glutaraldehyde solution without exposure to air. The fixated blood aliquots were evaluated by microscopic morphological analysis (image analysis on Image J software) to identify the proportion of sickled and non-sickled RBCs, and sickle inhibition calculated based on the % change from negative control (DMSO).

Hb [3] = target: T2, Hb; assay: Oxygen equilibrium curve (OEC) studies with normal whole blood; format: cell-based; design: Hemoglobin modification, studies using non-sickling AA blood; from tissue; host or cells: non-sickling (AA) human blood, red blood cells; conditions: normal whole blood, 0.5, 1, 2 mM
Outline: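 Whole human blood at 30% hematocrit incubated with compound at 0.5, 1.0 or 2.0 mM (DMSO) or without. After equilibration, pO2 and sO2 measured by automated blood gas analyser across saturation levels, and the oxygen equilibrium curve fitted by nonlinear regression.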

intracellular Hb = target: T3, intracellular Hb (Mus musculus, UniProt P01942); assay: In vivo modification of intracellular Hb in wild-type mice; design: species or system C57BL/6 mice
T3 construct: from tissue; host or cells: blood (red cell lysates) of dosed C57BL/6 mice
T3 sequence (P01942 2-142 limits assumed): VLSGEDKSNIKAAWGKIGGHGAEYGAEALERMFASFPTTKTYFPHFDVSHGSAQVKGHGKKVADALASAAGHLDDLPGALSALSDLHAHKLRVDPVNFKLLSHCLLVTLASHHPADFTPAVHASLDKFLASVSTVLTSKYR
T3 sequence (P02088 2-147 partner limits assumed): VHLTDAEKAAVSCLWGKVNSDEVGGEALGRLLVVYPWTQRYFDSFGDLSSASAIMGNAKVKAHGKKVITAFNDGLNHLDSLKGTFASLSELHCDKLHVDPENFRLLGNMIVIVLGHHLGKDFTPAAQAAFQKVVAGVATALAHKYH
Outline: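 C57BL/6 mice got a single 150 mg/kg dose, i.p. in 30% PEG300, or i.p. and oral in an alternative excipient. Blood was taken before dosing and at 1, 3 and 6 h (or 1, 3 or 5 h), then lysed. Lysates were analysed by cation-exchange HPLC for Hb adducts and by oxygen equilibrium for the p50 shift.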

SMILES: COC(=O)c1ccc(COc2cccc(O)c2C=O)cn1 [PP14, Methyl 5-((2-formyl-3-hydroxyphenoxy)methyl)picolinate]
- increase of Hb affinity for oxygen in sickle blood (in words) (sickle Hb): only marginally increasing Hb affinity for oxygen
- Fixed Adducts (%) (Hb [1]; 6 biological replicates): 96.1 ± 1.1%
- Unfixed Adduct (%) (Hb [1]; 6 biological replicates): 91.8 ± 11.6%
- Partitioning Ratio (%) (Hb [1]; fixed relative to unfixed adducts): 102.2 ± 8.0%
- inhibition at 2000 µM [2]: 83.1 ± 6.9%
- effect on Hb oxygen binding property (OEC) (Hb [3]): most significant activities
- Hb modification (intracellular Hb; IP 150 mg/kg, 30% PEG300, 1 hr): 7%
- Hb modification (intracellular Hb; IP 150 mg/kg, 30% PEG300, 3 hr): 13%
- modified Hb (intracellular Hb; IP 150 mg/kg, 30% PEG300, 6 h, 150 mg/kg): 19.1±0.6% and 19%
- Hb modification (intracellular Hb; IP 150 mg/kg, Catalent excipient, 1 hr): 21.8±1.6%
- Hb modification (intracellular Hb; IP 150 mg/kg, Catalent excipient, 3 hr): 37.7±5.0%
- Hb modification (intracellular Hb; IP 150 mg/kg, Catalent excipient, 5 hr): 51.1±4.3%
- modified Hb (intracellular Hb; oral gavage 150 mg/kg, Catalent excipient, 1 hr): 14.5±3.7%
- modified Hb (intracellular Hb; oral gavage 150 mg/kg, Catalent excipient, 3 hr): 16.3±2.2%
- modified Hb (intracellular Hb; oral gavage 150 mg/kg, Catalent excipient, 5 hr): 17.1±4.4%
